Source: ChEMBL document CHEMBL1201862, “PubChem BioAssay data set” (2004)
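How tested: cells in 96-well plates exposed to compound for 48 hours at five concentrations. The concentration for 50% growth inhibition is given as GI50.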 Active and inactive are the calls of the source. Rule as the data show it: active = GI50 up to about 1.1 µM and inactive = higher. Non-standard residues stand in square brackets, D forms with d. Residues, ends and D or L forms follow the SMILES beside them. Ava = NCCCCC(=O)O; Mpa = O=C(O)CCS

What was measured:
Assay in all cases: NCI-60 cell line screen, 48 h
[1] = tested on: 786-0
[2] = tested on: CAKI-1
[3] = tested on: EKVX
[4] = tested on: HCC 2998
[5] = tested on: HCT-116
[6] = tested on: HL-60
[7] = tested on: HOP-92
[8] = tested on: Hs-578T
[9] = tested on: MCF7
[10] = tested on: MOLT-4
[11] = tested on: NCI-H23
[12] = tested on: NCI-H522
[13] = tested on: NCI/ADR-RES
[14] = tested on: SK-MEL-5
[15] = tested on: SN12C
[16] = tested on: SW-620
[17] = tested on: UACC-62
[18] = tested on: OVCAR-4
[19] = tested on: SK-MEL-2

Measured: GI50

CCOC(=O)Cc1nc2c(N)ncnc2n1C1OC(COC(C)=O)C(OC(C)=O)C1OC(C)=O (stereo not drawn)
inactive: [1] > 100 µM | [2] > 100 µM | [3] > 100 µM | [4] > 100 µM | [5] > 100 µM | [6] > 100 µM | [7] 83.9 µM | [8] > 100 µM | [9] > 100 µM | [10] > 100 µM | [11] > 100 µM | [12] > 100 µM | [13] > 100 µM | [14] > 100 µM | [15] > 100 µM | [16] > 100 µM | [17] > 100 µM

O=C(NCCN1CCCCC1)c1cccc(I)c1
inactive: [1] > 100 µM | [2] > 100 µM | [3] > 100 µM | [4] > 100 µM | [6] > 100 µM | [7] 94.2 µM | [8] > 100 µM | [9] > 100 µM | [10] > 100 µM | [11] > 100 µM | [13] > 100 µM | [18] > 100 µM | [14] > 100 µM | [15] > 100 µM | [16] > 100 µM | [17] > 100 µM

CC(=O)N/N=C1/CC[C@@]2(C)C(=CC[C@H]3C4CCC(C(C)CCCC(C)C)[C@@]4(C)CCC32)C1(C)C (stereo partly drawn)
inactive: [1] 43.7 µM | [2] > 100 µM | [3] > 100 µM | [5] 48.8 µM | [6] 42 µM | [7] > 100 µM | [8] > 100 µM | [9] 53.7 µM | [10] 11 µM | [11] 70 µM | [12] 58.9 µM | [13] 47.8 µM | [18] 50.5 µM | [19] 58.3 µM | [14] 37.4 µM | [15] 51.4 µM | [16] 53.3 µM | [17] > 100 µM

O=c1[nH]c(=O)c2c([nH]1)[nH]c1ccccc12
inactive: [1] > 100 µM | [2] > 100 µM | [3] > 100 µM | [5] > 100 µM | [6] > 10 µM | [7] > 100 µM | [8] > 100 µM | [9] > 100 µM | [10] > 100 µM | [11] > 100 µM | [12] > 100 µM | [13] > 100 µM | [18] 29.3 µM | [19] > 100 µM | [14] > 100 µM | [15] > 100 µM | [16] > 100 µM | [17] > 100 µM

CCOC(=O)c1c(N2CCCC2)[nH]c(=O)c(C(c2ccc(OC)cc2)c2c(O)c(C(=O)OCC)c(N3CCCC3)[nH]c2=O)c1O
inactive: [1] > 100 µM | [2] 28.4 µM | [3] 44.8 µM | [4] > 100 µM | [5] > 100 µM | [7] 12.3 µM | [8] > 100 µM | [9] > 100 µM | [10] > 100 µM | [11] 82 µM | [12] > 100 µM | [13] > 100 µM | [18] > 100 µM | [19] 5 µM | [14] > 100 µM | [15] > 100 µM | [16] > 100 µM | [17] > 100 µM

CC(NC(=O)CCS)C(=O)NC(C)C(=O)NC(Cc1c[nH]c2ccccc12)C(=O)NC(Cc1c[nH]cn1)C(=O)NC(CO)C(=O)NC(Cc1c[nH]c2ccccc12)C(=O)NCCCCC(=O)NC(C)C(=O)NC(CCC(N)=O)C(=O)NC(CCCCN)C(=O)NC(C)C(=O)NC(CCCNC(=N)N)C(=O)NC(CCCCN)C(N)=O (stereo not drawn) ([Mpa]AAWHSW[Ava]AQKARK-NH2; configuration not given here)
inactive: [1] 31.6 µM | [2] 44.2 µM | [3] > 100 µM | [5] > 100 µM | [6] 24.7 µM | [7] > 100 µM | [8] > 100 µM | [9] > 100 µM | [10] > 100 µM | [11] > 100 µM | [12] > 100 µM | [13] > 100 µM | [18] > 100 µM | [19] > 100 µM | [14] 35.6 µM | [15] > 100 µM | [16] 94.4 µM | [17] 22.5 µM

O=C(NNC(=O)c1ccc(Cl)cc1NC(=O)C12CC3CC(CC(C3)C1)C2)c1ccc(Cl)cc1
inactive: [1] 22.5 µM | [2] 24.4 µM | [3] 23.2 µM | [4] 17.1 µM | [5] 20.3 µM | [6] 25.7 µM | [7] 17.5 µM | [8] 21.5 µM | [9] 27.9 µM | [10] 30.1 µM | [11] 39.7 µM | [12] 14.7 µM | [13] 24.8 µM | [18] 34.8 µM | [14] 18 µM | [15] 27.7 µM | [16] 32.1 µM | [17] 21.7 µM

CCOC(=O)C1CCCN1C(=O)c1ccccc1Cl (stereo not drawn)
inactive: [1] > 100 µM | [2] > 100 µM | [3] > 100 µM | [4] > 100 µM | [5] > 100 µM | [6] > 100 µM | [7] 75.9 µM | [8] > 100 µM | [9] > 100 µM | [10] > 100 µM | [11] > 100 µM | [12] > 100 µM | [13] > 100 µM | [14] > 100 µM | [15] > 100 µM | [16] > 100 µM | [17] 22 µM

CCOC(=O)CCC(C(=O)OCC)n1nc2ccc(Nc3c(C)[n+]([O-])c4cc(Cl)ccc4[n+]3[O-])cc2n1 (stereo not drawn)
inactive: [1] 83.9 µM | [2] 61.7 µM | [3] 32.2 µM | [5] 30.1 µM | [6] 96.8 µM | [7] 27 µM | [8] 59.6 µM | [9] 38.2 µM | [10] 32.3 µM | [11] > 100 µM | [12] 40 µM | [13] > 100 µM | [18] 65.8 µM | [19] 96.2 µM | [14] 75 µM | [15] 73.3 µM | [16] > 100 µM | [17] 66.1 µM

O=C1CCCC2C(O)CCC[C@H]12 (stereo partly drawn)
inactive: [1] > 100 µM | [2] > 100 µM | [3] > 100 µM | [4] > 100 µM | [5] > 100 µM | [6] > 100 µM | [8] > 100 µM | [9] > 100 µM | [10] > 100 µM | [11] > 100 µM | [12] > 100 µM | [13] > 100 µM | [18] > 100 µM | [19] > 100 µM | [14] > 100 µM | [15] > 100 µM | [16] > 100 µM | [17] > 100 µM

CN1C(=O)c2cccc3cc([N+](=O)[O-])cc(c23)C1=O
inactive: [1] > 10 µM | [2] > 10 µM | [4] > 10 µM | [5] 8.61 µM | [6] > 10 µM | [7] > 10 µM | [8] > 10 µM | [9] 4.05 µM | [10] 5.04 µM | [11] 9.08 µM | [12] 5.65 µM | [13] > 10 µM | [18] > 10 µM | [14] > 10 µM | [15] > 10 µM | [16] > 10 µM | [17] > 10 µM
